Measured values from PubChem BioAssay (NCI).
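48-hour exposure; five concentrations; linearly interpolated endpoints. The concentration for 50% growth inhibition is given as GI50. The concentration for full growth arrest is given as TGI.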

Experiments:
Assay in all cases: NCI tumour cell line growth inhibition, 48 h
SR leukemia = system: SR leukemia
SK-MEL-2 melanoma = system: SK-MEL-2 melanoma
NCI-H23 lung = system: NCI-H23 lung
UO-31 renal = system: UO-31 renal
PC-3 prostate = system: PC-3 prostate
HOP-62 NSCLC = system: HOP-62 NSCLC
ACHN renal = system: ACHN renal
BT-549 breast = system: BT-549 breast
EKVX NSCLC = system: EKVX NSCLC
SK-OV-3 ovarian = system: SK-OV-3 ovarian
A498 renal = system: A498 renal
IGROV1 ovarian = system: IGROV1 ovarian
SF-295 CNS = system: SF-295 CNS
SF-268 CNS = system: SF-268 CNS
U251 CNS = system: U251 CNS
786-0 renal = system: 786-0 renal
COLO 205 colon = system: COLO 205 colon
A549 NSCLC = system: A549 NSCLC
M14 melanoma = system: M14 melanoma

SMILES | TGI (SR leukemia) [µM] | TGI (SK-MEL-2 melanoma) [µM] | TGI (NCI-H23 lung) [µM] | TGI (UO-31 renal) [µM] | TGI (PC-3 prostate) [µM] | TGI (HOP-62 NSCLC) [µM] | TGI (ACHN renal) [µM] | TGI (BT-549 breast) [µM] | TGI (EKVX NSCLC) [µM] | TGI (SK-OV-3 ovarian) [µM] | TGI (A498 renal) [µM] | TGI (IGROV1 ovarian) [µM] | TGI (SF-295 CNS) [µM] | TGI (SF-268 CNS) [µM] | TGI (U251 CNS) [µM] | TGI (786-0 renal) [µM] | TGI (COLO 205 colon) [µM] | TGI (A549 NSCLC) [µM] | TGI (M14 melanoma) [µM] | GI50 (HOP-62 NSCLC) [µM]
CC(C)(C)[Si](C)(C)OCC1OC(n2cc(F)c(=O)[nH]c2=O)CC1O[Si](C)(C)C(C)(C)C (centres undefined) | 7.08 | 29.7 | 19.6 | 23 | 14.2 | 30 | 21.8 | 17 | 21.7 | 28.3 | 21.1 | 19.7 | 21.4 | 29.8 | 22.5 | 20.9 | 19.5 | 25.6 | 30.9 | 
COc1cc2c(c(N)c1OC)C(=O)/C(=C/c1cc(C)c(O)c(C)c1)C2 | > 100 | > 95.4 | > 46.6 | > 100 | > 100 | > 60.2 | > 100 | > 100 | > 100 | > 100 | > 90.4 | > 100 | > 55.6 | > 100 | > 45.5 | > 100 | > 52.2 | > 100 | > 100 | 
Cc1nc2c(O)cccc2c(=O)[nH]1 | > 1000 | > 1000 | > 1000 | > 1000 | > 1000 | > 1000 | > 1000 | 634 | > 1000 | > 1000 | > 1000 | > 1000 | > 1000 | > 1000 | > 1000 | > 1000 |  | > 1000 | > 1000 | 
COc1ccc(N2C(=O)CSC2c2cc3cc(Br)ccc3nc2Cl)cc1 (centres undefined) | > 50 | > 50 | > 50 | > 50 | > 50 | > 50 | > 50 | > 50 | > 50 | > 50 | > 50 | > 50 | > 50 | > 50 |  | > 50 | > 50 | > 50 | > 50 | 
CCCCCCNC(=O)c1cc(C#Cc2cc(OC)ccc2OC)ccc1OC | > 100 | > 100 | > 100 | > 100 | > 100 | > 100 | > 100 | > 100 | > 100 | > 100 | > 100 | > 100 | > 100 | > 100 | > 100 | > 100 | > 100 | > 100 | > 100 | 11.8
CC1=Nc2nc3ccccc3n2C(C)(C)C1 | > 100 | > 100 | > 100 | > 100 | > 100 | > 100 | > 100 | > 100 | > 100 | > 100 | > 100 | > 100 | > 100 | > 100 | > 100 | > 100 | > 100 | > 100 | > 100 | 
CC(C)=CCC[C@](C)(O)[C@H]1CC[C@]2(C)[C@@H]1[C@H](O)C[C@@H]1[C@@]3(C)CC[C@H](O[C@@H]4O[C@H](CO)[C@@H](O)[C@H](O)[C@H]4O)C(C)(C)[C@@H]3CC[C@]12C | 28.8 | 29.7 | 38 | 31.1 | 31.9 | 47.8 | 32.9 | 34.3 | 39.4 | 33 | 35.4 | 29.8 | 39.6 | 29.3 | 35.2 | 36 | 37.3 | 37.7 | 46 | 
Cn1c(N(CCO)CCO)cnc1[N+](=O)[O-] | > 100 | > 100 | > 100 | > 100 | > 100 | > 100 | > 100 | > 100 | > 100 | > 100 | > 100 | > 100 | > 100 | > 100 | > 100 | > 100 | > 100 | > 100 | > 100 | 
COC(=O)c1cc(C)n2c1CS[C@@H]2c1ccccc1 | 54.6 | 91.8 | > 100 | > 100 | > 100 | > 100 | > 100 | 82.8 | 93.2 | > 100 | 88 | > 100 | > 100 | > 100 | > 100 | > 100 | 80 | > 100 | 73.4 | 
CSc1c(CC(=O)O)n(Cc2ccccc2)c2ccccc12 | > 100 | > 100 | > 100 | > 100 | > 100 | > 100 | > 100 | > 100 | > 100 | > 100 | > 100 | > 100 | > 100 | > 100 | > 100 | > 100 | > 100 | > 100 | > 100 | 
COc1ccc(-n2nnc3c(C#N)c(-c4ccccc4)c(C)n3c2=O)cc1 | 91 | 83.8 | > 100 | > 100 | > 100 | > 100 | > 100 | > 100 | > 100 | > 100 | > 100 | > 100 | > 100 | > 100 | > 100 | 40 | > 100 | > 100 | > 100 | 
CCCCOP(=O)(OCCCC)/C(C#N)=C/c1ccc(C)o1 | > 100 | 77.3 | 92.3 |  | 51.4 | > 100 | > 100 | 43 | > 100 | > 100 | > 100 | > 100 | > 100 | > 100 | > 100 | > 100 | > 100 | > 100 | 78.5 | 
COc1ccc(OC)c(C2CCCc3c2cnc2nc(N)nc(N)c32)c1 (centres undefined) | > 100 | > 100 | > 100 | > 100 | > 100 | > 100 | > 100 | > 100 | > 100 | > 100 | > 100 | > 100 | > 100 | > 100 | > 100 | > 100 | > 100 | > 100 | > 100 | 
CCOC(=O)C1c2[nH]c3ccccc3c2CCN1C(=O)c1ccco1 (centres undefined) | > 10 |  |  |  | > 10 | > 10 | > 10 | > 10 | > 10 | > 10 | > 10 | > 10 | > 10 | > 10 | > 10 | > 10 | > 10 | > 10 | > 10 | 
C[C@@H](C(=O)O)c1ccc(-c2ccccc2)c(F)c1 | > 100 | > 100 | > 100 | > 100 | > 100 | > 100 | > 100 | > 100 | > 100 | > 100 | > 100 | > 100 | > 100 | > 100 | > 100 | > 100 | > 100 | > 100 | > 100 | 
COC(=O)C(/C(=N/N)C(=O)Nc1ccc(C)c(C)c1)c1nc2ccc(Cl)cc2[nH]c1=O (centres undefined) | > 100 | > 100 | > 100 | > 100 | > 100 | > 100 | > 100 | > 100 | > 100 | > 100 | > 100 | > 100 | > 100 | > 100 | > 100 | > 100 |  | > 100 | > 100 | 
Cn1c(=O)oc2cc(C(=S)N3CCC(Cc4ccccc4)CC3)ccc21 | > 100 | > 100 | > 100 |  | > 100 | > 100 | > 100 | > 100 | > 100 | > 100 | > 100 | > 100 | > 100 | > 100 | > 100 | > 100 | > 100 |  | > 100 | 
O=C(Cn1c(C(=O)/C=C/c2ccco2)nc2ccccc21)c1ccc(Cl)cc1 | 16.4 | 27.8 | 28.1 | 94.3 | 44.2 | > 100 | > 100 | 42.9 |  | > 100 | 44.4 | 57.1 |  | 58.6 | > 100 | 31.4 | 49.2 | > 100 | 58.2 | 
Nc1ccn([C@H]2CO[C@@H](CO)O2)c(=O)n1 | > 100 | > 100 | > 100 | > 75.1 | > 100 | > 57.9 | 7.87 | > 100 | > 100 | > 100 |  | > 100 | > 100 | > 100 | > 100 | > 100 | > 100 | > 100 | 19.1 | 
CC1(C)N(OC2CCCCO2)C(c2ccccc2)C(c2ccccc2)=[N+]1[O-] (centres undefined) | > 100 | > 100 | > 100 | > 100 | > 100 | > 100 | > 100 | > 100 | > 100 | > 100 | > 100 | > 100 | > 100 |  | > 100 | > 100 | > 100 | > 100 | > 100 | 
Cn1c(=O)nc2n(CCO)ccnc-2c1=O | > 100 | > 100 | > 100 | > 100 | > 100 | > 100 | > 100 | > 100 | > 100 |  | > 100 | > 100 | > 100 | > 100 | > 100 | > 100 | > 100 | > 100 | > 100 | 
C/C(=N\Nc1nc2ccccc2[nH]1)c1ccncn1 | > 100 | > 66.1 | > 33.3 |  | > 100 | 1.3 | 0.986 | > 100 | 43.2 | 64.3 | 6.38 | 43.8 | > 44.6 |  | > 100 | > 100 | > 47.4 | > 100 |  | 
OCCOCCN1CCN(c2nc(N3CCCC3)c3nc(Cl)c(NCc4ccccc4)nc3n2)CC1 | 17.8 | 32 | 31.4 | 21.7 | 27.1 | 26.7 | 27.2 | 29.1 | 27.1 | 31.9 |  | 33.9 | 29.3 | 31.9 | 25.5 | 26.5 | 21.7 | 28.4 | 24.8 | 
COc1cc(CNc2nc3ccccc3nc2-c2cccs2)cc(OC)c1OC | > 100 |  | 65.5 | 25 | 39.4 | > 100 | 29.3 | 12.9 | > 100 | > 100 | > 100 | > 100 | > 100 | > 100 | > 100 | > 100 | > 100 | > 100 |  | 
O=c1n(CCCN2CCN(c3cccc(Cl)c3)CC2)nc2n1-c1ccc3ccccc3c1SC2 | > 100 | > 100 |  |  | > 100 | > 100 |  | > 100 | > 100 | > 100 | > 100 | > 100 | > 100 |  | > 100 | > 100 | > 100 | > 100 |  | 
COc1cc(COC(=O)N2CCCCC2C(=O)O)c([N+](=O)[O-])cc1OC (centres undefined) | > 100 |  | > 100 | > 100 | > 100 | > 100 | > 100 | > 100 | > 100 | > 100 | > 100 | > 100 | > 100 | > 100 | > 100 | > 100 | > 100 | > 100 | > 100 | 
